This note sets out measurements from ChEMBL document CHEMBL1143087, “Indirect oxidation of the antitumor agent procarbazine by tyrosinase--possible application in designing anti-melanoma prodrugs” (Bioorg Med Chem Lett, 2008).

Active and inactive are the calls of the source. The calls are words filed in the database; no cut-off is given here.

In this experiment the target is T1, Tyrosinase (Agaricus bisporus) (UniProt O42713).
T1 sequence (whole entry): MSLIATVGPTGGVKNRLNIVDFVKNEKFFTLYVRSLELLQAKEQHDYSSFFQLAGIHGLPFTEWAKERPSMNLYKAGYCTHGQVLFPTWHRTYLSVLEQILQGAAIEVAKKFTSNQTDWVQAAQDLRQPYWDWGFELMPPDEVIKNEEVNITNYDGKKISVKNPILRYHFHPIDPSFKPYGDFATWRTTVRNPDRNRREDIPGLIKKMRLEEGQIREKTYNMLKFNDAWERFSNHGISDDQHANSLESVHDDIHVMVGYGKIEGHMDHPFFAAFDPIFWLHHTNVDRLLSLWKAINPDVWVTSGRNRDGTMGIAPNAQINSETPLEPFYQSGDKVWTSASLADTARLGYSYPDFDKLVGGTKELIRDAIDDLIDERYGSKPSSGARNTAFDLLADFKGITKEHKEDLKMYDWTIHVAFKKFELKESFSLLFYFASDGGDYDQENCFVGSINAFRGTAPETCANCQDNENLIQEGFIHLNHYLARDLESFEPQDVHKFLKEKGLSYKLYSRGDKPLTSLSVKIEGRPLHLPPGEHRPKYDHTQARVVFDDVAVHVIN
As to the kind of experiment: Increase in mushroom tyrosinase catalysed oxidation of 4-tert-butyl catechol assessed as oxygen consumption after 30 mins.

Consider `CNNCc1ccc(C(=O)NC(C)C)cc1`, for which the result was Active.
